Assay [1] concerns the target GDP-bound NRAS wild-type protein (Homo sapiens, UniProt P01111). Briefly: Binding to NRAS by surface plasmon resonance (SPR), Single Cycle Kinetics. Particulars: for NRAS/KRAS (ratio of KD value with respect to NRAS to KD value with respect to KRAS): GDP-bound NRAS wild-type vs GDP-bound KRAS wild-type.
In assay [2] the target is GDP-bound HRAS wild-type protein (Homo sapiens, UniProt P01112). Briefly: Binding to HRAS by surface plasmon resonance (SPR), Single Cycle Kinetics. Particulars: for HRAS/KRAS (ratio of KD value with respect to HRAS to KD value with respect to KRAS): GDP-bound HRAS wild-type vs GDP-bound KRAS wild-type.
GDP-bound HRAS wild-type protein, sequence (P01112 whole entry): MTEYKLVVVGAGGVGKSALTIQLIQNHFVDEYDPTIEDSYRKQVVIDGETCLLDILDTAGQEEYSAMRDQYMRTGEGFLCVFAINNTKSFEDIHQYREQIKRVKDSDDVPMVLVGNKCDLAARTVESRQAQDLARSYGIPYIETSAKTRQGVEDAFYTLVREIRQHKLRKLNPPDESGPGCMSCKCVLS
Setting [3] is: SPR, GDP-bound wild-type proteins.

GDP-bound NRAS wild-type protein, sequence (P01111 whole entry): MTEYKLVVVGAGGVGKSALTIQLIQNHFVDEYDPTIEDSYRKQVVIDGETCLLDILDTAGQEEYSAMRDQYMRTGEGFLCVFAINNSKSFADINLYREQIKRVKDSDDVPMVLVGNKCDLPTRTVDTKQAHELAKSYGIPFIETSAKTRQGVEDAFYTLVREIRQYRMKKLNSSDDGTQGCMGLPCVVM

Turning to `CCC[C@@H]1C[C@H]2C(=O)NC3(CC(C)(C)C3)C(=O)N(C)[C@@H](C3CCCC3)C(=O)N(C)[C@H](C(=O)N(C)C)CC(=O)N(C)[C@@H](CC)C(=O)N[C@@H]([C@@H](C)CC)C(=O)N(C)CC(=O)N(C)[C@H]3C/C=C\CCN(C3=O)[C@@H](Cc3ccc(C)cc3)C(=O)N(C)CC(=O)N[C@@H](CCc3cc(F)c(C(F)(F)F)c(F)c3)C(=O)N2C1` [PP2208], in assay [1] (SPR), the “NRAS/KRAS (ratio of KD value with respect to NRAS to KD value with respect to KRAS)” value was “A (a compound having 10 or more and less than 20 is denoted as A)”. In assay [2] (SPR), the “HRAS/KRAS (ratio of KD value with respect to HRAS to KD value with respect to KRAS)” value was “A (a compound having 10 or more and less than 20 is denoted as A)”.

Turning to `CCO[C@@H]1C[C@H]2C(=O)NC3(CCC3)C(=O)N(C)[C@@H](C3CCCC3)C(=O)N(C)[C@H](C(=O)N3CCOCC3)CC(=O)N(C)[C@@H](Cc3ccccc3Cl)C(=O)N[C@@H]([C@@H](C)CC)C(=O)N(C)CC(=O)N(C)[C@H]3CCCCCN(C3=O)[C@@H](Cc3ccc(C(F)(F)F)cc3)C(=O)N(C)CC(=O)N[C@@H](CCc3cc(F)c(C(F)(F)F)c(F)c3)C(=O)N2C1` [PP0929], in assay [1] (KD ratio, SPR), the “NRAS/KRAS (ratio of KD value with respect to NRAS to KD value with respect to KRAS)” value is “A (a compound having 10 or more and less than 20 is denoted as A)”. In addition, the “HRAS/KRAS (ratio of KD value with respect to HRAS to KD value with respect to KRAS)” value in assay [2] (KD ratio, SPR) is “B (a compound having 3 or more and less than 10 is denoted as B)”.

On to `CC[C@H](C)[C@@H]1NC(=O)[C@H](CC(C)C)N(C)C(=O)C[C@@H](C(=O)N2CCOCC2)N(C)C(=O)[C@H](C2CCCC2)N(C)C(=O)C2(CC2)NC(=O)[C@@H]2CCCN2C(=O)[C@H](CCc2cc(F)c(C(F)(F)F)c(F)c2)NC(=O)CN(C)C(=O)[C@H](Cc2ccc(C(F)(F)F)cc2)N2CCCCC[C@@H](C2=O)N(C)C(=O)CN(C)C1=O` [PP0496], for which the “NRAS/KRAS (ratio of KD value with respect to GDP-bound NRAS wild-type protein to KD value with respect to KRAS)” value in assay [1] (SPR) was “B (a compound having 3 or more and less than 10 is denoted as B)”. For the same molecule, the “HRAS/KRAS (ratio of KD value with respect to GDP-bound HRAS wild-type protein to KD value with respect to KRAS)” value in assay [2] (SPR) is “B (a compound having 3 or more and less than 10 is denoted as B)”.

For the molecule `CCO[C@@H]1C[C@H]2C(=O)NC3(CC(C)(C)C3)C(=O)N(C)[C@@H](C(CC)CC)C(=O)N(C)[C@H](C(=O)N(C)C)CC(=O)N(C)[C@H]3CCC/C=C/c4ccc(cc4)C[C@@H](C(=O)N(C)CC(=O)N[C@@H](CCc4cc(F)c(C(F)(F)F)c(F)c4)C(=O)N2C1)N1CC/C=C\C[C@@H](C1=O)N(C)C(=O)CN(C)C(=O)[C@H]([C@@H](C)CC)NC3=O` [PP2575], the “NRAS/KRAS (ratio of KD value with respect to GDP-bound NRAS wild-type protein to KD value with respect to KRAS)” value in assay [1] (class symbols) is “A (a compound having 10 or more and less than 20 is denoted as A)”. Besides, the “HRAS/KRAS (ratio of KD value with respect to GDP-bound HRAS wild-type protein to KD value with respect to KRAS)” value in assay [2] (class symbols) was “A (a compound having 10 or more and less than 20 is denoted as A)”.

For `CCC[C@H]1C(=O)N[C@@H]([C@@H](C)CC)C(=O)N(C)CC(=O)N(C)[C@H]2C/C=C\CCN(C2=O)[C@@H](Cc2ccc(C)cc2)C(=O)N(C)CC(=O)N[C@@H](CCc2ccc(C(F)(F)F)c(OC)c2)C(=O)N2CC3(CC3)C[C@H]2C(=O)NC2(CC(C)(C)C2)C(=O)N(C)[C@@H](CC(C)C)C(=O)N(C)[C@H](C(=O)N(C)C)CC(=O)N1C` [PP3013], the “NRAS/KRAS (ratio of KD value with respect to GDP-bound NRAS wild-type protein to KD value with respect to KRAS)” value in assay [1] (setting [3]) is listed as “AA (a compound having 20 or more is denoted as AA)”. In assay [2] (setting [3]), the “HRAS/KRAS (ratio of KD value with respect to GDP-bound HRAS wild-type protein to KD value with respect to KRAS)” value was “B (a compound having 3 or more and less than 10 is denoted as B)”.

For `CCC[C@H]1C(=O)N[C@@H]([C@@H](C)CC)C(=O)N(C)CC(=O)N(C)[C@H]2C/C=C\CCN(C2=O)[C@@H](Cc2ccc(C(F)(F)F)cc2)C(=O)N(C)CC(=O)N[C@@H](CCc2ccc(Cl)c(Cl)c2)C(=O)N2CCCCC[C@H]2C(=O)NC2(CC(C)(C)C2)C(=O)N(C)[C@@H](C(CC)CC)C(=O)N(C)[C@H](C(=O)N(C)C)CC(=O)N1C` [PP3031], in assay [1] (setting [3]), the “NRAS/KRAS (ratio of KD value with respect to GDP-bound NRAS wild-type protein to KD value with respect to KRAS)” value is recorded as “AA (a compound having 20 or more is denoted as AA)”. Also, in assay [2] (setting [3]), the “HRAS/KRAS (ratio of KD value with respect to GDP-bound HRAS wild-type protein to KD value with respect to KRAS)” value is “A (a compound having 10 or more and less than 20 is denoted as A)”.

For the molecule `CC[C@H](C)[C@@H]1NC(=O)[C@H](CC(C)C)N(C)C(=O)C[C@@H](C(=O)N2CCOCC2)N(C)C(=O)[C@H](C2CCCC2)N(C)C(=O)C2(CCC2)NC(=O)[C@@H]2[C@@H](O)CCN2C(=O)[C@H](CCc2cc(F)c(C(F)(F)F)c(F)c2)NC(=O)CN(C)C(=O)[C@H](Cc2ccc(C(F)(F)F)cc2)N2CCCC[C@@H](C2=O)N(C)C(=O)CN(C)C1=O` [PP0869], the “NRAS/KRAS (ratio of KD value with respect to NRAS to KD value with respect to KRAS)” value in assay [1] (KD ratio, SPR) was “B (a compound having 3 or more and less than 10 is denoted as B)”. Further, the “HRAS/KRAS (ratio of KD value with respect to HRAS to KD value with respect to KRAS)” value in assay [2] (KD ratio, SPR) was “B (a compound having 3 or more and less than 10 is denoted as B)”.
